According to ChEMBL document CHEMBL6078680, “Improving the Stability and Anti-Infective Activity of Sea Turtle AMPs Using Multiple Structural Modification Strategies” (J Med Chem, 2024):
The source made the active and inactive calls. No cut-off for these calls is given here. Non-standard residues stand in square brackets, D forms with d. Residues, ends and D or L forms follow the SMILES beside them. Orn = NCCC[C@H](N)C(=O)O

Key:
[1] = system: Staphylococcus aureus; test: Antibiofilm activity against Staphylococcus aureus CMCC 26003 assessed as biofilm eradication incubated for 24 hrs by crystal violet staining based analysis; format: functional, organism-based
[2] = system: Escherichia coli; test: Antibacterial activity against Escherichia coli ATCC 25922 assessed as increase in intracellular ROS production at 1 times MIC by DCFH-DA staining based assay; format: functional, organism-based
[3] = system: Acinetobacter baumannii; test: Antipersister-activity against Acinetobacter baumannii ATCC 19606 assessed as elimination of persister cells at 50 times MIC preincubated adherent persistent cells with colistin incubation for 24 hrs; format: functional
[4] = Acute toxicity in BALB/c mouse assessed as mortality at 50 mg/kg, iv measured for 24 hrs; format: organism-based; conditions: in vivo, read-out: Activity
[5] = system: Acinetobacter baumannii; test: In vivo antibacterial activity against Acinetobacter baumannii ATCC19606 infected in BALB/c mouse assessed as reduction in bacterial load in liver at 15 mg/kg, ip measured after 12 hrs; format: functional, organism-based
[6] = system: Escherichia coli; test: Antimicrobial activity against Escherichia coli CMCC44102 assessed as reduction in microbial growth incubated for 18 hrs by broth microdilution method; format: functional
[7] = system: Staphylococcus aureus; test: Bactericidal activity against Staphylococcus aureus CMCC 26003 assessed as bacterial eradication incubated at 0.5 hrs in presence of thiourea; format: functional, organism-based
[8] = system: Escherichia coli; test: Antibacterial activity against Escherichia coli ATCC 25922 assessed as increase in intracellular ROS production at 2 to 5 times MIC by DCFH-DA staining based assay; format: functional, organism-based
[9] = system: Escherichia coli; test: Antimicrobial activity against Escherichia coli ATCC 25922 assessed as reduction in microbial growth incubated for 18 hrs by broth microdilution method; format: functional
[10] = system: Staphylococcus aureus; test: Antimicrobial activity against Staphylococcus aureus CMCC 26003 at 5 times MIC measured at 180 mins; format: functional, organism-based
[11] = system: Acinetobacter baumannii; test: Antibiofilm activity against Acinetobacter baumannii ATCC 19606 assessed as inhibition of biofilm formation at 0.5 times MIC incubated for 48 hrs by crystal violet staining based analysis; format: functional
[12] = system: Acinetobacter baumannii; test: In vivo antibacterial activity against Acinetobacter baumannii ATCC19606 infected in BALB/c mouse assessed as reduction in bacterial load in lung at 15 mg/kg, ip measured after 12 hrs; format: functional, organism-based
[13] = system: Staphylococcus aureus; test: Antimicrobial activity against Staphylococcus aureus ATCC 43300 assessed as reduction in microbial growth incubated for 18 hrs by broth microdilution method; format: functional
[14] = Acute toxicity in BALB/c mouse assessed as effect on ALT level at 10 mg/kg, iv measured for 24 hrs; format: organism-based; conditions: in vivo
[15] = system: Acinetobacter baumannii; test: In vivo antibacterial activity against Acinetobacter baumannii ATCC19606 infected in BALB/c mouse assessed as survival at 15 mg/kg, ip administered for 12 hrs and measured after 3 hrs; format: functional; conditions: time 15 hrs
[16] = system: Pseudomonas aeruginosa; test: Antimicrobial activity against Pseudomonas aeruginosa CMCC10104 assessed as reduction in microbial growth incubated for 18 hrs by broth microdilution method; format: functional
[17] = system: Peritoneal macrophage; test: Antiinflammatory activity in mouse Peritoneal macrophage cells assessed as inhibition of LPS-induced TNF-alpha production at 20 microg/ml incubated for 6 hrs by ELISA analysis; format: functional, cell-based; conditions: dose 20.0 µg/ml
[18] = system: Acinetobacter baumannii; test: Antimicrobial activity against Acinetobacter baumannii ATCC19606 assessed as reduction in microbial growth incubated for 18 hrs by broth microdilution method; format: functional
[19] = system: Cell membrane; test: Disruption of cell membrane integrity in Escherichia coli ATCC 25922 assessed as cell membrane damage at 5 times MIC measured after 30 mins by scanning electron microscopic analysis; format: subcellular
[20] = system: Escherichia coli; test: Drug resistance, ratio of MIC for Escherichia coli ATCC 25922 after 40 passages to MIC for Escherichia coli ATCC 25922 during first exposure; format: functional
[21] = system: Staphylococcus aureus; test: Antimicrobial activity against Staphylococcus aureus CMCC 26003 assessed as fold increase in MIC incubated for 18 hrs in presence of CCCP; format: functional
[22] = system: Acinetobacter baumannii; test: In vivo antibacterial activity against Acinetobacter baumannii ATCC19606 infected in BALB/c mouse assessed as survival at 15 mg/kg, ip administered for 12 hrs and measured on day 7; format: functional; conditions: ATCC19606, 168 h, time 7 day
[23] = Acute toxicity in BALB/c mouse assessed as mortality at 10 mg/kg, iv measured for 24 hrs; format: organism-based; conditions: in vivo, read-out: Activity
[24] = system: Staphylococcus aureus; test: Antibacterial activity against Staphylococcus aureus CMCC 26003 assessed as increase in intracellular ROS production incubated for 1 hr by DCFH-DA staining based assay; format: functional, organism-based
[25] = system: Staphylococcus aureus; test: Antipersister-activity against Staphylococcus aureus CMCC 26003 assessed as elimination of persister cells at 50 times MIC preincubated adherent persistent cells with colistin incubation for 24 hrs; format: functional
[26] = system: Peritoneal macrophage; test: Antiinflammatory activity in mouse Peritoneal macrophage cells assessed as inhibition of LPS-induced IL-6 production at 20 microg/ml incubated for 6 hrs by ELISA analysis; format: functional, cell-based; conditions: dose 20.0 µg/ml
[27] = system: Staphylococcus epidermidis; test: Antimicrobial activity against Staphylococcus epidermidis assessed as reduction in microbial growth incubated for 18 hrs by broth microdilution method; format: functional
[28] = system: Cell membrane; test: Disruption of cell membrane integrity in Staphylococcus aureus CMCC 26003 assessed as cell membrane damage at 5 times MIC measured after 30 mins by scanning electron microscopic analysis; format: subcellular
[29] = system: Acinetobacter baumannii; test: Drug resistance, ratio of MIC for Acinetobacter baumannii ATCC1960 after 40 passages to MIC for Acinetobacter baumannii ATCC1960 during first exposure; format: functional
[30] = system: Acinetobacter baumannii; test: Antibiofilm activity against Acinetobacter baumannii ATCC 19606 assessed as biofilm eradication incubated for 24 hrs by crystal violet staining based analysis; format: functional, organism-based
[31] = system: Acinetobacter baumannii; test: In vivo antibacterial activity against Acinetobacter baumannii ATCC19606 infected in BALB/c mouse assessed as reduction in bacterial load in liver at 15 mg/kg, ip measured after 3 hrs; format: functional, organism-based
[32] = system: Acinetobacter baumannii; test: Antibiofilm activity against Acinetobacter baumannii ATCC 19606 assessed as inhibition of biofilm formation incubated for 48 hrs by crystal violet staining based analysis; format: functional, organism-based
[33] = system: Staphylococcus aureus; test: Antibiofilm activity against Staphylococcus aureus CMCC 26003 assessed as inhibition of biofilm formation incubated for 48 hrs by crystal violet staining based analysis; format: functional, organism-based
[34] = system: Enterococcus faecium; test: Antimicrobial activity against Enterococcus faecium 34 assessed as reduction in microbial growth incubated for 18 hrs by broth microdilution method; format: functional
[35] = system: Acinetobacter baumannii; test: In vivo antibacterial activity against Acinetobacter baumannii ATCC19606 infected in BALB/c mouse assessed as reduction in bacterial load in kidney at 15 mg/kg, ip measured after 12 hrs; format: functional, organism-based
[36] = system: Staphylococcus aureus; test: Antimicrobial activity against Staphylococcus aureus 08032706 assessed as reduction in microbial growth incubated for 18 hrs by broth microdilution method; format: functional
[37] = system: Staphylococcus aureus; test: Antibiofilm activity against Staphylococcus aureus CMCC 26003 assessed as biofilm eradication at 0.5 to 2 times MIC incubated for 24 hrs by crystal violet staining based analysis; format: functional
[38] = system: Acinetobacter baumannii; test: In vivo antibacterial activity against Acinetobacter baumannii ATCC19606 infected in BALB/c mouse assessed as reduction in bacterial load at 15 mg/kg, ip; format: functional, organism-based; conditions: time 3.0 hrs
[39] = Hemolytic activity at human Erythrocyte assessed as hemolysis at 100 microg/ml; format: toxicity, cell-based; conditions: erythrocytes, at 100 µg/mL, read-out: Activity
[40] = system: Escherichia coli; test: Antibacterial activity against Escherichia coli ATCC 25922 at 1 times MIC in presence of exogenous DNA; format: functional, organism-based

CC[C@H](C)[C@H](NC(=O)[C@H](CCCN)NC(=O)[C@H](CO)NC(=O)[C@H](Cc1c[nH]cn1)NC(=O)[C@H](CCCN)NC(=O)[C@H](CC(C)C)NC(=O)[C@@H](NC(=O)[C@H](CCCN)NC(=O)CNC(=O)[C@H](CC(C)C)NC(=O)[C@H](CCC(N)=O)NC(=O)[C@H](CCCN)NC(=O)[C@H](CCCN)NC(=O)[C@@H](NC(=O)[C@H](CCCN)NC(=O)[C@H](CCCN)NC(=O)[C@@H](N)Cc1ccccc1)C(C)C)C(C)C)C(=O)N[C@H](C(=O)N[C@H](C(=O)NCC(=O)NCC(=O)N[C@@H](CCCN)C(=O)N[C@@H](CCSC)C(=O)N[C@@H](CCCN)C(=O)N[C@@H](Cc1ccccc1)C(=O)O)C(C)C)[C@@H](C)O (H-F[Orn][Orn]V[Orn][Orn]QLG[Orn]VL[Orn]HS[Orn]ITVGG[Orn]M[Orn]F-OH)
Activity [1]: Active
Activity [2]: Active
Activity [3]: 60%
mortality at 24 h [4]: 0%
Activity [5]: Active
MIC [6]: 18.8 mg/L
Activity [7]: Active
Activity [8]: Active
MIC [9]: 9.38 mg/L
Activity [10]: inactive
inhibition (INH) [11]: 10%
Activity [12]: Active
MIC [13]: > 100 mg/L
Activity [14]: Non-toxic
Activity [15]: >60%
MIC [16]: 75 mg/L
Activity [17]: Active
MIC [18]: 9.38 mg/L
Activity [19]: Active
Ratio [20]: 1
fold change (FC) [21]: 32
survival at 15 mg/kg [22]: 40%
mortality at 24 h [23]: 0%
Activity [24]: Dose-dependent-effect
Activity [25]: 50%
Activity [26]: Active
MIC [27]: 18.8 mg/L
Activity [28]: Active
Ratio [29]: 1
Activity [30]: Active
Activity [31]: Active
Activity [32]: Active
Activity [33]: Active
MIC [34]: 9.38 mg/L
Activity [35]: Active
MIC [36]: 37.5 mg/L
Activity [37]: 20%
Activity [38]: Time-dependent-effect
hemolysis at 100 microg/ml [39]: < 5%
Activity [40]: Active
